Experimental data taken from ChEMBL document CHEMBL1201862, “PubChem BioAssay data set” (2004).
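In this assay, cells in 96-well plates receive the compound at five concentrations for 48 hours. Endpoints are linearly interpolated between the surrounding concentrations. Abbreviation: GI50, concentration required for 50% inhibition of growth.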 Calls of active or inactive are those of the source. Rule as the data show it: active = GI50 up to about 1.1 µM and inactive = higher.

Key:
Assay in all cases: growth of human tumour cells (NCI), 48 h
OVCAR-3 = tested on: OVCAR-3
UACC-62 = tested on: UACC-62
786-0 = tested on: 786-0
SNB-75 = tested on: SNB-75
OVCAR-8 = tested on: OVCAR-8
RPMI-8226 = tested on: RPMI-8226
HL-60 = tested on: HL-60
SF-295 = tested on: SF-295
IGROV-1 = tested on: IGROV-1
OVCAR-5 = tested on: OVCAR-5
MDA-MB-435 = tested on: MDA-MB-435
T47D = tested on: T47D
KM12 = tested on: KM12
K562 = tested on: K562
CCRF-CEM = tested on: CCRF-CEM
UACC-257 = tested on: UACC-257
PC-3 = tested on: PC-3
SF-539 = tested on: SF-539
MDA-MB-231 = tested on: MDA-MB-231
SK-MEL-28 = tested on: SK-MEL-28

| SMILES | GI50 (OVCAR-3) | GI50 (UACC-62) | GI50 (786-0) | GI50 (SNB-75) | GI50 (OVCAR-8) | GI50 (RPMI-8226) | GI50 (HL-60) | GI50 (SF-295) | GI50 (IGROV-1) | GI50 (OVCAR-5) | GI50 (MDA-MB-435) | GI50 (T47D) | GI50 (KM12) | GI50 (K562) | GI50 (CCRF-CEM) | GI50 (UACC-257) | GI50 (PC-3) | GI50 (SF-539) | GI50 (MDA-MB-231) | GI50 (SK-MEL-28) |
| --- | --- | --- | --- | --- | --- | --- | --- | --- | --- | --- | --- | --- | --- | --- | --- | --- | --- | --- | --- | --- |
| Cc1cc(S(=O)(=O)Nc2n[nH]c(Nc3ccccc3)n2)c(S)cc1Cl | > 10 µM (inactive) | > 10 µM (inactive) | > 10 µM (inactive) | > 10 µM (inactive) | > 10 µM (inactive) | > 10 µM (inactive) | > 10 µM (inactive) | > 10 µM (inactive) | > 10 µM (inactive) | > 10 µM (inactive) | > 10 µM (inactive) | > 10 µM (inactive) | > 10 µM (inactive) | > 10 µM (inactive) | > 10 µM (inactive) | > 10 µM (inactive) | > 10 µM (inactive) | > 10 µM (inactive) | > 10 µM (inactive) | > 10 µM (inactive) |
| N#Cc1c(C#N)c(-c2ccccc2)n(-c2ccccc2)c1N | > 100 µM (inactive) | 69.5 µM (inactive) | 82.6 µM (inactive) | 1.27 µM (inactive) | > 100 µM (inactive) | 5.87 µM (inactive) | > 100 µM (inactive) | 15.3 µM (inactive) | 88.5 µM (inactive) | > 100 µM (inactive) | > 100 µM (inactive) | 6.52 µM (inactive) | > 100 µM (inactive) | 19.7 µM (inactive) | 87.5 µM (inactive) | > 100 µM (inactive) | > 100 µM (inactive) | 20.2 µM (inactive) | > 100 µM (inactive) |  |
| O=C1CCCc2cc3c(cc21)CC1(C3)Cc2ccc3c(c2C1)C(=O)CCC3 (stereo unspecified) | 15.9 µM (inactive) |  | 30.7 µM (inactive) | 15.5 µM (inactive) | 16.4 µM (inactive) | 7.59 µM (inactive) | 5.18 µM (inactive) | 18.5 µM (inactive) | 20.5 µM (inactive) | > 100 µM (inactive) | 4.91 µM (inactive) | 24.1 µM (inactive) | 14 µM (inactive) | 3.31 µM (inactive) | 6.92 µM (inactive) | 5.24 µM (inactive) | 21.7 µM (inactive) | 28.3 µM (inactive) | 29.2 µM (inactive) | 26.1 µM (inactive) |
| CCC1CC(C)C(O)/C=C/C=C/CC(C)OC(=O)CC(O)C(OC)C1OC1OC(C)CC(O)(C(C)=O)C1O (stereo unspecified) | 20.3 µM (inactive) | > 100 µM (inactive) | > 100 µM (inactive) | 15.5 µM (inactive) | > 100 µM (inactive) | 48.8 µM (inactive) | 21.8 µM (inactive) | > 100 µM (inactive) | > 100 µM (inactive) | > 100 µM (inactive) | > 100 µM (inactive) | 51.4 µM (inactive) | 35.2 µM (inactive) |  | 46.5 µM (inactive) | 37.9 µM (inactive) | 66.1 µM (inactive) | 78.9 µM (inactive) | 16 µM (inactive) | > 100 µM (inactive) |
| CO[C@H]1[C@@H](O)[C@@H](C)O[C@@H](O[C@H]2CC[C@@]3(C)[C@H](CC[C@@H]4[C@@H]3CC[C@]3(C)[C@@H](C5=CC(=O)OC5)CC[C@]43O)C2)[C@@H]1O [ODOROSIDE H] | 0.00531 µM (active) | 0.00689 µM (active) | 0.00453 µM (active) | 0.00601 µM (active) | 0.00661 µM (active) | 0.0111 µM (active) | 0.00378 µM (active) | 0.00516 µM (active) | 0.00498 µM (active) | 0.0321 µM (active) | 0.00908 µM (active) | 0.0333 µM (active) | 0.0112 µM (active) |  | 0.00422 µM (active) | 0.0109 µM (active) | 0.00426 µM (active) | 0.00468 µM (active) | 0.0413 µM (active) | 0.0394 µM (active) |
